One block for each compound: values may come before it. Active and inactive are the calls of the source.
Experiments:
[1] = target: T1, Short transient receptor potential channel 4 (Mus musculus, UniProt Q9QUQ5); assay: block of DAMGO-driven TRPC4 calcium entry – cell-based, HEK293 TRPC4/mu-opioid, Fluo-4 calcium, dose response (AID 434942); type: functional;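 note: potency of inhibitors blocking the TRPC4 calcium response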
T1 sequence (Q9QUQ5 whole entry): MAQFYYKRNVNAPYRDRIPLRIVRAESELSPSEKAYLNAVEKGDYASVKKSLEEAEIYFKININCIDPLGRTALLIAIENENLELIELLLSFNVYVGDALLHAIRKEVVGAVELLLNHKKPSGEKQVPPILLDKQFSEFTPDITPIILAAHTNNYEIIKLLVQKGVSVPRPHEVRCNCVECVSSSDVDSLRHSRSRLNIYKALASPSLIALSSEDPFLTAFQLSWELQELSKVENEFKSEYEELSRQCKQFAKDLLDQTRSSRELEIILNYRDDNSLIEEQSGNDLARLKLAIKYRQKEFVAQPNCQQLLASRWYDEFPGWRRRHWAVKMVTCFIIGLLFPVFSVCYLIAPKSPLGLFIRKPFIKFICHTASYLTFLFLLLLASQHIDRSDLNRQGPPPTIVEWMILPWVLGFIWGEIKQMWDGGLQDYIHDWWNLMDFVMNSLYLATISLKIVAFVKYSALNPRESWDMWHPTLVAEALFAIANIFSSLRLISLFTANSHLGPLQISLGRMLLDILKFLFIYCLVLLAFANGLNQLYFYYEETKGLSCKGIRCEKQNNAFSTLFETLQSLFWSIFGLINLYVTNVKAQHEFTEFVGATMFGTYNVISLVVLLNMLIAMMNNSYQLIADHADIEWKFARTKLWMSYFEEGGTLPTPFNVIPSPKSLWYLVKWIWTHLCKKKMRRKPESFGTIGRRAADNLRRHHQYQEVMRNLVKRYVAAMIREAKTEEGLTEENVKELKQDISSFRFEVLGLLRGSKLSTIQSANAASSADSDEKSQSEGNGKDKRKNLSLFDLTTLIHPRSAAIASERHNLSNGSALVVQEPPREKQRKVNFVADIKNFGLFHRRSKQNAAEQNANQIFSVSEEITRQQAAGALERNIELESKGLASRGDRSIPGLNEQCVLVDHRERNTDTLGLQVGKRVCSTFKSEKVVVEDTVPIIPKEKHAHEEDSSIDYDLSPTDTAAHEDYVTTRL

Estrogen receptor = target: T2, Estrogen receptor (Homo sapiens, UniProt P03372);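 note: potency for inhibiting coactivator peptide recruitment to the receptor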
T2 sequence (P03372 whole entry): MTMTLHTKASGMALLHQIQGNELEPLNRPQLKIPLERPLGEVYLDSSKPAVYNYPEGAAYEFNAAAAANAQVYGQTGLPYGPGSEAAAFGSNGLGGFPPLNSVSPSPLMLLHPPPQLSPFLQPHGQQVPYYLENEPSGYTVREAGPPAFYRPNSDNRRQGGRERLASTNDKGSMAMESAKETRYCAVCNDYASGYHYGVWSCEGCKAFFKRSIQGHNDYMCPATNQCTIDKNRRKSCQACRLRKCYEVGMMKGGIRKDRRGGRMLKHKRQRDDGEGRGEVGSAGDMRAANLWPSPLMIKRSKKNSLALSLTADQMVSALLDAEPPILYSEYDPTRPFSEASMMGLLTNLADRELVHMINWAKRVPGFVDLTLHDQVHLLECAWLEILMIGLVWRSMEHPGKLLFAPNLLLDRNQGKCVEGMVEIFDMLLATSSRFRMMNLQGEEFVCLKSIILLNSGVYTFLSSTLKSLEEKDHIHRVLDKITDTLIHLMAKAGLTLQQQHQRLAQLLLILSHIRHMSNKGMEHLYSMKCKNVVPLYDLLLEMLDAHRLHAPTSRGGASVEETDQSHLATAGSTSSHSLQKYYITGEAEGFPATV

[2] = viability of PTEN-deleted HCT116 cells – cell-based, HCT116 PTEN knockout, dose response (AID 1047); type: functional;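 note: HCT116 colon tumor cells with PTEN knocked out; cells exposed to compound for 60 hours before readout; potency for loss of cell viability measured by luminescence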
[3] = viability of HCT116 lacking mutant beta-catenin – cell-based, human colon tumor, dose response (AID 1045); type: functional;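 note: HCT116 colon tumor cells with beta catenin knocked out; cells exposed to compound for 60 hours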
Leucine aminopeptidase = target: T3, Leucine aminopeptidase (Plasmodium falciparum 3D7, UniProt Q8IL11); assay: P. falciparum M17LAP inhibitors, primary screen, biochemical, fluorogenic H-Leu-NHMec substrate, 1536-well (AID 1619); type: functional
T3 sequence (Q8IL11 whole entry): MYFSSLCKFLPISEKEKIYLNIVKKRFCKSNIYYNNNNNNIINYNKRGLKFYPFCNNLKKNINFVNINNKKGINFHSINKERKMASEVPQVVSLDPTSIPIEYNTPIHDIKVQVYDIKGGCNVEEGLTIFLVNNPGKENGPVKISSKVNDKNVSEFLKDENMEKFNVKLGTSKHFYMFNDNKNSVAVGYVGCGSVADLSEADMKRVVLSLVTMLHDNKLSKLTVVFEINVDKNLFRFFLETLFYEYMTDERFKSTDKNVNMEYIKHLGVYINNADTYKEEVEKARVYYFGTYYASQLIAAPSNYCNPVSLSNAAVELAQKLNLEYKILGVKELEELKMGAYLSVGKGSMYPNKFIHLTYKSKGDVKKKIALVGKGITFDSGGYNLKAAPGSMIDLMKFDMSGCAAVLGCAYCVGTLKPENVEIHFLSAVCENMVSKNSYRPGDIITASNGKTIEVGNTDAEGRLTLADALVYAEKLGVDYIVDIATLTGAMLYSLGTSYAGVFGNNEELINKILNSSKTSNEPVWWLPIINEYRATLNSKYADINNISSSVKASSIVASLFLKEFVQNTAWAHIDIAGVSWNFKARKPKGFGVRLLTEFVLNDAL

H9c2 = assay: cells; type: functional, cell-based; conditions: Rattus norvegicus, H9c2, Myocardium;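 note: confirmatory concentration-response retest of ultra-high-throughput screening hits for modulation of myocardial damage; cell death induced by hydrogen peroxide oxidative stress; compound pretreatment for 60 min then peroxide exposure for 2 h; potency is for protecting the cells against peroxide damage rather than for killing them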
[4] = NIH3T3 cell viability loss – ATP luminescence, mouse fibroblasts, counter-screen, dose response (AID 2010); type: functional, cell-based;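 note: cells exposed to compound for about 90 hours before reading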
[5] = Trypanosoma cruzi growth suppression in host cells – NIH3T3 host cells, beta-gal luminescence, confirmation (AID 2044); type: functional, cell-based;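 note: intracellular parasites grown in NIH/3T3 mouse fibroblasts as host cells; luminescent beta-galactosidase reporter signal from transgenic T. cruzi replicating inside host cells; inhibitors lower the luminescence signal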

SMILES: CCOc1ccc(NCc2nnc(SCC(=O)Nc3nc(-c4ccccc4)cs3)n2-c2ccccc2)cc1
EC50 [2]: 3.65 µM (active) | EC50 [3]: 3.28 µM (active)

SMILES: Cc1ccc(C)c(Oc2cc(NC(=O)CCCn3nc(C)c([N+](=O)[O-])c3C)cc([N+](=O)[O-])c2)c1
EC50 [2]: 21.1 µM (active) | EC50 [3]: 18.9 µM (active)

SMILES: CCSc1nnc(NC(=O)C2CCCCC2C(=O)OCC(F)(F)C(F)F)s1 (centres undefined)
IC50 (Leucine aminopeptidase): 76.8 µM (active)

SMILES: COc1cc2c(cc1OC)CN(c1nc(CN3CCOCC3)nc3sc4c(c13)CCC(C)C4)CC2 (centres undefined)
EC50 [2]: 9.18 µM (active) | EC50 [3]: 9.91 µM (active)

SMILES: CCCCn1c(NC(=O)c2ccccc2)nc2ccccc21
EC50 [1]: 5.96 µM (active) | IC50 (H9c2): 9.17 µM (active) | EC50 [4]: 11.3 µM (active) | EC50 [5]: 2.15 µM (active)

SMILES: COC(=O)c1ccc2c(c1)C(=O)/C(=C/c1ccc(C)cc1)O2
EC50 [2]: 16.8 µM (active) | EC50 [3]: 17.2 µM (active)

Second part, the compound after the results:

EC50 [1]: 5.31 µM (active)
SMILES: CCCn1c(NCc2ccc(C)o2)nc2ccccc21

IC50 (Estrogen receptor): 15.4 µM (active)
SMILES: COc1ccc2nc3oc(C(=O)N4CCN(c5cccc(C(F)(F)F)c5)CC4)cc3cc2c1

IC50 (Estrogen receptor): 10.7 µM (active)
SMILES: Cc1nc2sccn2c1-c1nc(-c2cc3ccccc3o2)cs1

EC50 [1]: 3.35 µM (active)
SMILES: O=c1c2ccccc2nc(SCc2ccccc2)n1CC1CCCO1 (centres undefined)

IC50 (Leucine aminopeptidase): 15.1 µM (active)
SMILES: Cc1nnc(SCC(=O)Nc2cccc(C(F)(F)F)c2)[nH]c1=O

IC50 (Leucine aminopeptidase): 40.6 µM (active)
SMILES: CCOC(=O)CC(=O)CSc1nc(O)c2sc(=S)n(-c3ccccc3)c2n1
